One data set relates to donor T cells. Particulars: 10 nM dose of AP1903; cells expressing iCasp9; cited from earlier work.
In data set [1] the test system is 19CAR-T cells. As to the kind of experiment: CAR-T cell proliferation assay. Particulars: corticosteroid treatment; JeKo-1 stimulation. It counts as cell-based, human. The text has this:
Primary human T cells were activated using an anti-CD3/CD28/CD2 reagent. Two-days after being contacted with the reagent, the T cells were edited using a base editor system containing the guide polynucleotide TSBT×1538 and the base editor ABE8.20m using electroporation, as described above. Following electroporation, both the T cells were transduced with a lentiviral vector encoding an anti-CD19 CAR (19CAR) and allowed to expand in culture for approximately 7 days before being cryopreserved for later analysis. Unedited anti-CD19 CAR-T cells were prepared as a negative control. The 19CAR-T cells were then thawed from cryopreservation and rested overnight before being stimulated using dynabeads coated with recombinant human CD19 protein-coated at a bead-to-cell ratio of 1:1. The T cells were cultured in the presence of 100 nM of the immunosuppressant rapamycin or dimethylsulfoxide (DMSO) as a control for 6 days. The total number of T cells were enumerated using a NucleoCounter NC-200™ automated cell counter.
Primary human T cells were activated using an anti-CD3/CD28/CD2 reagent. Two days after being contacted with the reagent, the T cells were edited using a base editor system containing the guide polynucleotide TSBT×1538 and the base editor ABE8.20m using the electroporation protocol described above. Both edited and unedited T cells were transduced with a lentiviral vector encoding an anti-CD19 CAR (19CAR) and allowed to expand in culture for approximately 7 days before being cryopreserved for later analysis. Unedited 19CAR-T cells were used as a control. For analysis, the 19CAR-T cells were thawed and rested for 72 hours before labeling using a CellTrace™ Far Red (CTFR) dye. After CTFR labeling, the 19CAR-T cells were stimulated using an Immunocult™ Human CD3/CD28/CD2 universal T cell activator in the presence of 100 nM of the immunosuppressant agent rapamycin or in the presence of DMSO (control) and allowed to incubate for an additional 3 days. Following the three-day incubation, the T cells were analyzed using flow cytometry to measure dilution of CTFR dye as an indicator of cell proliferation.
The following day, T cells were washed, counted and 1×10^4 cells were seeded in triplicate into a 96-well flat bottom plate alone or with 1×10^4 JeKo-1.GFP^+ tumor cells. […] On day 7, samples were analyzed by flow cytometry and 19CAR-T cells were enumerated using CountBright Counting Beads (Thermo Fisher Scientific) following the manufacturer's protocol.

Data set [2] has as its system 19CAR-T cells. In words: CAR-T cell cytokine production assay. The class given is cell-based, human. Particulars: corticosteroid treatment; JeKo-1 stimulation; IFNg and TNFa. The procedure:
10. Monensin and Brefeldin A were added to the cell cultures to inhibit protein secretion for the duration of the stimulation. After the 6 hours, the cells were stained with reagents against 19CAR, CD4, CD8, IFNg, and TNFa, and the cells were also stained using a viability stain. Fluorescence activated cell sorting (FACS) was then used to measure intracellular levels of IFNg (y-axis) and TNFa (x-axis) in CD4^+ 19CAR-T cells. In FIG. 10, the numbers in each quadrant of each contour plot represent the percent of total cells counted that fell within the quadrant.
10. Monensin and Brefeldin A were added to the cell cultures to inhibit protein secretion for the duration of the stimulation. After the 6 hours, the cells were stained with reagents against 19CAR, CD4, CD8, IFNg, and TNFa, and the cells were also stained using a viability stain. Fluorescence activated cell sorting (FACS) was then used to measure intracellular levels of IFNg (y-axis) and TNFa (x-axis) in CD8^+ 19CAR-T cells. In FIG. 10, the numbers in each quadrant of each contour plot represent the percent of total cells counted that fell within the quadrant.
The following day, T cells were washed, counted and 1×10^5 cells were seeded in duplicate into a 96-well flat bottom plate alone or with 2×10^5 JeKo-1.GFP^+ tumor cells. […] Cells were incubated for 6 hours total before analysis by flow cytometry.

The subject of a further data set is endogenous NK cells. As to the kind of experiment: IL-15 treatment of HIS mice, elimination of HLA-deficient T cells. Conditions: 2.5 mg every 2-3 days, 6 total injections. The class given is in vivo, BLT mice. The text has this:
FIGS. 20A to 20E provide plots, a schematic diagram, and a flow cytometry scatter plot showing human immune system (HIS) mice under-reconstituted human NK cells and necessitated IL-15 treatment to eliminate HLA-deficient T cells. FIG. 20A provides a plot showing frequency of human CD56^+ NK cells of CD45^+ cells in PBMCs from human donors (n=10), BLT-NSG mice (Cohort A, n=18; Cohort B, n=15; Cohort C, n=18) and huCD34^+ NCG mice (Cohort D, n=17; Cohort E, n=12; Cohort F, n=24; Cohort G, n=12). FIGS. 20B to 20E relate to an experiment where HIS mice were treated every 2-3 days with recombinant human IL-15 (2.5 mg) or PBS for 6 total injections. Mice were then coinfused 1:1 ratio with allogeneic CD4-based CAR-T cells that were base-edited for TCRKO (HLA+) or TCRKOb2MKOCIITAKO (HLA−). […] Statistical significance was calculated by Wilcoxon matched-pairs signed rank test (FIG. 20E).
For the study described in FIGS. 20A to 20E, BLT mice received intraperitoneal injections every 2-3 days of 2.5 mg recombinant human IL-15 (BioLegend; n=6) or sterile PBS (n=3) for 6 total injections. […] Persistence of 4CAR-T cells was monitored at 1-, 4- and 7-days post-T cell infusion via blood draw from the retro-orbital sinus. […] Persistence of 4CAR-T cells was monitored at 1-day post-T cell infusion and weekly thereafter via blood draw from submandibular vein.

A further data set concerns PPIA protein. In words: Flow cytometry of PPIA protein in edited T cells. It counts as cell-based, human. Particulars: T cells edited with ABE8.20m and the guide, five days. The text has this: FIG. 7 provides a set of overlaid flow cytometry histograms confirming knock-out of PPIA protein expression in primary human T cells edited using base editor systems containing
ABE8.20m and the guide polynucleotide TSBT×6143 or TSBT×6146 (see Table 1 for nucleotide sequences). Five days following being contacted with the base editor systems, the T cells were stained using LIVE/DEAD™ Fixable Near-Infra Red (NIR) stain (Thermo). The cells were then fixed and permeabilized followed by immunostaining using a primary antibody targeting PPIA (polyclonal Cyclophilin A Antibody from ProteinTech; 10720-1-AP). The cells were then contacted with a secondary antibody (polyclonal Goat anti-Rabbit IgG (H+L) Cross-Adsorbed Secondary Antibody labeled using Alexa Fluor™ 488 and available from Invitrogen; A-11008) and analyzed using flow cytometry. Unedited cells and isotype control antibody stained cells were used as controls representing high and low levels of PPIA protein, respectively. The x-axis of FIG. 7 indicates the level of PPIA protein measured. In FIG. 7, the y-axis represents cell counts normalized to the mode cell count measured for PPIA expression levels in a sample (i.e., the most frequently counted expression level was set to have a total cell count value (y-axis value) equal to 100).
On the technique in general: In flow cytometry, cells or beads pass a laser one at a time.

For `CC[C@H](C(=O)N1CCCC[C@H]1C(=O)O[C@H](CCc1ccc(OC)c(OC)c1)c1cccc(OCC(=O)NCCNC(=O)COc2cccc([C@@H](CCc3ccc(OC)c(OC)c3)OC(=O)[C@@H]3CCCCN3C(=O)[C@@H](CC)c3cc(OC)c(OC)c(OC)c3)c2)c1)c1cc(OC)c(OC)c(OC)c1` [AP1903], in the data set on donor T cells, the “apoptosis of donor T cells” value is given as “approximately 99%”. Regarding `C[C@@H]1C[C@H]2[C@@H]3CCC4=CC(=O)C=C[C@]4(C)[C@@]3(F)[C@@H](O)C[C@]2(C)[C@@]1(O)C(=O)CO` [dexamethasone, Dexamethasone], the “antigen-driven proliferation of FKBP1A^KO 19CAR-T cells” value in the data set on 19CAR-T cells [1] is listed as “suppressed”. Further, the “cytokine production of FKBP1A^KO 19CAR-T cells” value in the data set with 19CAR-T cells [2] is on record as “suppressed”. In the case of `C[C@]12C=CC(=O)C=C1CC[C@@H]1[C@@H]2C(=O)C[C@@]2(C)[C@H]1CC[C@]2(O)C(=O)CO` [prednisone, Prednisone], the “antigen-driven proliferation of FKBP1A^KO 19CAR-T cells” value in the data set with 19CAR-T cells [1] was “suppressed”. The “cytokine production of FKBP1A^KO 19CAR-T cells” value with 19CAR-T cells [2] was “suppressed”. Regarding “recombinant human IL-15: recombinant human IL-15 (BioLegend)”, the “priming of endogenous NK cells against b2M^KO T cells” value in the data set with endogenous NK cells is “prime endogenous NK cells against b2M^KO T cells in vivo”.

B1: TSBT×6143: guide polynucleotide targeting PPIA (nucleic acid)
guide: GCCCGACCTCAAAGGAGACGGTTTTAGAGCTAGAAATAGCAAGTTAAAATAAGGCTAGTCCGTTATCAACTTGAAAAAGTGGCACCGAGTCGGTGCTTTT
modifications: chemistry not given here
notes: guide polynucleotide targeting PPIA
With B1, the PPIA expression entry in the data set with PPIA protein is given as “Knock-out of PPIA expression”.

B2: TSBT×6146: guide polynucleotide targeting PPIA (nucleic acid)
guide: CGTACCTGACACATAAACCCGTTTTAGAGCTAGAAATAGCAAGTTAAAATAAGGCTAGTCCGTTATCAACTTGAAAAAGTGGCACCGAGTCGGTGCTTTT
modifications: chemistry not given here
notes: as for B1
Turning to B2, in the data set with PPIA protein, the PPIA expression result is “Knock-out of PPIA expression”.
